Experimental data reported in PMC4526861, “Inhibition of protein kinase C by isojacareubin suppresses hepatocellular carcinoma metastasis and induces apoptosis in vitro and in vivo” (Scientific Reports, 2015).

Legend:
[1] = test system: HepG2 xenografts; test: Antitumor activity in vivo, HepG2 xenograft; set-up: species or system BALB/c-nu nude mice; conditions: 5 mg/kg, tail vein injection every other day for two weeks
Description: Four-week-old male BALB/c-nu nude mice (15–20 g) were obtained from the Shanghai SLAC Laboratory Animal Co., Ltd. (Shanghai, China). The animals were maintained under specific pathogen-free conditions with food and water supplied ad libitum in the Laboratory Animal Center of the Second Military Medical University. All animal experiments were carried out in accordance with the Guide for the Care and Use of Laboratory Animals of the National Institutes of Health and were approved by the Committee on the Ethics of Animal Experiments of the Second Military Medical University, China.
HepG2 cells were harvested and resuspended in PBS. A total of 5 × 10^6 cells were subcutaneously injected into the right flank. Tumor volume was calculated using the following formula: V = (L × W^2)/2, where L is the length and W is the width of the tumor nodules measured with vernier calipers. Once the volume of the tumors reached 75–100 mm^3, the mice were randomly divided into three groups (n = 5). The mice were treated every other day for two weeks with tail vein injections of either vehicle (5% ethanol and 2.5% polyethylene glycol in saline), compound 7, or ISJ (5 mg/kg in the vehicle). Body weights were measured before each drug injection. After the 15th day, the mice were euthanized, and the tumors were isolated, weighed and photographed.

[2] = test system: HepG2 cells; test: Matrigel invasion assay; assay type: cell-based, human; conditions: 10 μM, 24 h
Description: Cell migration and invasion potencies were studied using wound healing and Matrigel invasion assays. The wound healing assay was performed by scratching the cell surface with a 10 μL pipette tip. Then, the cells were treated with compound 7 and ISJ (10 μM) and incubated for 24 h before being photographed under a microscope (DMI3000 B, Leica). Wound closure was evaluated using ImageJ software. Invasion through a Matrigel-coated filter was measured in transwell chambers (Corning Costa) as described previously, with minor modifications. Briefly, HepG2 Cells (2 × 10^5/well) were suspended in serum-free medium and added to the upper chamber of the Matrigel plate. FBS (10%) was used as the chemoattractant in the lower chamber. After incubation for 24 h, the non-invading cells were removed from the upper surface of the insert membrane with a cotton swab. The invading cells were fixed with methanol and stained with Giemsa (Sigma). Cells in five randomly selected fields were photographed, and the numbers of cells that crossed the membrane were counted.

[3] = test system: QGY-7703 cells; test: Cell proliferation assay (CCK-8), QGY-7703; assay type: cell-based, human
Description: The human HCC cell lines QGY-7703, SMMC-7721 and HepG2 and the liver cell line QSG-7701 were supplied by the Cell Resource Center, Institute of Life Sciences, Chinese Academy of Medical Science. QGY-7703, SMMC-7721 and QSG-7701 cells were cultured in 1640 medium (Gibco), and HepG2 cells were cultured in DMEM medium (Gibco) at 37 °C in moist air supplemented with 5% CO2. All media were supplemented with 10% fetal bovine serum (FBS) and 100 Units/mL of penicillin/streptomycin.
The cell viability assay was performed as previously reported using a Cell Counting Kit-8 (CCK-8; Dojindo, Kumamoto, Japan)[33][34]. The relative cell viability was presented as % inhibition and calculated using the following formula: […]

[4] = test system: phosphorylated c-Raf, MEK1/2 and ERK1/2; test: Western blot of MAPK phosphorylation, QGY-7703; assay type: cell-based, human; conditions: QGY-7703, 24 h
Description: Additional PKC targeting effects involved in the early response of major MAPK phosphorylation and the late response of HCC cell invasion and apoptosis were investigated. After 24 h of treatment with ISJ at the indicated concentrations, the total protein lysates from HCC cells were analyzed (Fig. 6). ISJ inhibited the phosphorylated, activated forms of c-Raf, MEK1/2 and ERK1/2 in the MAPK signaling pathway in both HepG2 and QGY-7703 cells (Fig. 6a). […] In contrast, E-cadherin expression was elevated, specifically at the highest concentration of ISJ (20 μM) (Fig. 6b). In addition, we analyzed several representative apoptotic proteins, including cleaved PARP (c-PARP), p53 and p21. […] These findings support our hypothesis that ISJ restrains HCC cell metastasis and induces HCC cell apoptosis by specifically inhibiting PKC.
The total membrane and cytosolic proteins were extracted using a Membrane and Cytosol Protein Extraction Kit (Beyotime). Extracted proteins from cells or animal tissues were separated by SDS-PAGE and transferred to polyvinylidene difluoride (PVDF) membranes (Bio-Rad). The PVDF membranes were blocked with 5% nonfat milk and incubated with primary antibodies overnight, followed by incubation with a donkey anti-rabbit or anti-mouse secondary antibody (IRDye 800, LI-COR, Biosciences). […] The intensity was quantitative with Quantity One software (Bio-Rad). […]

[5] = test system: c-PARP, c-Cas3 and c-Cas9 in xenograft tumors; test: Histology, IHC and immunoblot of xenograft tumors; assay type: in vivo, BALB/c-nu nude mice; conditions: 5 mg/kg
Description: The total membrane and cytosolic proteins were extracted using a Membrane and Cytosol Protein Extraction Kit (Beyotime). Extracted proteins from cells or animal tissues were separated by SDS-PAGE and transferred to polyvinylidene difluoride (PVDF) membranes (Bio-Rad). The PVDF membranes were blocked with 5% nonfat milk and incubated with primary antibodies overnight, followed by incubation with a donkey anti-rabbit or anti-mouse secondary antibody (IRDye 800, LI-COR, Biosciences). The images were captured using the Odyssey Infrared Imaging System (LI-COR, Biosciences), according to the manufacturer's instructions. The intensity was quantitative with Quantity One software (Bio-Rad). To ensure equal protein loading, each membrane was stripped and reprobed with an anti-β-actin antibody. All experiments were repeated independently no less than three times.
To further confirm the antitumor activities of compound 7 and ISJ in vivo, histological analysis was performed on the hepatoma xenografts. Briefly, the samples were fixed in a 10% formalin solution, processed, embedded, sectioned and either H&E stained to reveal tumor tissue necrosis or IHC stained using antibodies against c-PARP, c-Cas3 or c-Cas9. The H&E and IHC images were obtained on a Leica DMI3000 B phase-contrast microscopy. The immunoreactive areas in the IHC images were quantified using ImagePro Plus 6.0 software (Media Cybernetics, Silver Spring, MD). The integrated optical density (IOD) values were represented as the mean ± SEM.

[6] = test system: PKC; test: PKC activity assay (PepTag non-radioactive, HepG2 lysates); assay type: biochemical, human; conditions: 3 h
Description: The activity of PKC in HepG2 cells was assessed 3 h after the addition of compound 7 or ISJ by measuring the phosphorylation of a PKC-specific target peptide. Compared to the basal control (in the absence of any compound), PKC activity was inhibited by compound 7 and ISJ.
Figure 3 Effects of compound 7 and ISJ on PKC activity in HepG2 cells. The proteins from lysed HepG2 cells were prepared and measured for their ability to phosphorylate a PKC-specific peptide substrate (PLSRTLSVAAK) in a non-radioactive assay. (a) Lanes 1 and 2 show the negative (water only) and positive controls (with 20 ng purified PKC). Supernatants from HepG2 cells were subjected to the PKC activity assay in the absence (basal control, lane 3) or presence (lanes 4–7) of the compounds. Compound 7 (lanes 4 and 5) and ISJ (lanes 6 and 7) were added separately at 10 and 5 μM. (b) Quantification of (a); *P < 0.05 versus the basal control. Data are shown as the mean ± SD of three independent experiments.
The PKC activity assay was carried out as previously reported, according to the instructions of the PepTag non-radioactive PKC assay kit (Promega)[60]. The bands were photographed using the Syngene GBOX-iCHEMI-XR system, and the phosphorylated bands were cut out for quantification measurement at 570 nm.

## Isojacareubin [ISJ]
[1]
  reduction of tumor weight compared to controls: 74.1%
[2]
  inhibition of invasiveness compared to control: 76%
[3]; 50 μM
  Inhibitory Ratio (%) QGY-7703: 83.69%
[3]; mean ± SD, at least three independent experiments
  IC50: 4.65 ± 0.32 µM
[4]
  phosphorylated, activated forms of c-Raf, MEK1/2 and ERK1/2: inhibited
[5]
  H&E staining of xenograft tumors: significant tissue death
  IHC c-PARP, c-Cas3 and c-Cas9 levels in tumors: upregulated expression
  immunoblot c-PARP, c-Cas3 and c-Cas9 levels in tumor tissue: increased
[6]; 5 μM
  inhibition of PKC activity compared to the basal control: 52.3%
[6]; 10 μM
  inhibition of PKC activity compared to the basal control: 77.7%
